Measured values: patent US20070275935A1, “Estratriene Derivatives” (priority 2003, published 2007)

How the values were obtained:
HASM cells = test: bFGF-induced HASM proliferation over 7 days on plastic or collagen-coated silastic, comparison with dexamethasone; assay type: cell-based, human; details: 1 μM, bFGF 300 pM
Description: We examined the effects of 4NO (1 μM) and the glucocorticoid dexamethasone (Dex, 100 nM) on the proliferation of HASM cells in response to bFGF (300 pM). Dexamethasone is a commonly used anti-inflammatory glucocorticoid. Cells were cultured on a standard plastic tissue culture plate. The test compounds were pre-incubated with HASM for 30 minutes before the addition of bFGF. The incubation continued for 7 days before cell enumeration (FIG. 5). Data are expressed as a percentage of the cell number in vehicle treated wells and are presented as the mean and standard error of the mean.
The response of HASM cells grown on a collagen extracellular matrix to the glucocorticoids and test compounds was also examined. Cells were cultured on a collagen-coated silastic base. HASM cells were pre-incubated with the test compounds for 30 minutes before the addition of bFGF (300 pM). The incubation continued for 7 days before cell enumeration (FIG. 6). Data are expressed as a percentage of the cell number in vehicle treated wells and are presented as the mean and standard error of the mean.

[1] = tested on: bleomycin-induced fibrosis in C57BL6 female mice; test: Bleomycin model of pulmonary fibrosis in mice; assay type: in vivo; details: 4NO 50 mg/kg/day i.p.
Description: The activity of CP-DM-2-11-7 was investigated using a bleomycin model of pulmonary fibrosis (Underwood et al. 2000). 4NO was administered daily commencing on the day of the bleomycin challenge, 2 hours before the mice received bleomycin. The 4NO (50 mg/kg/day, by intraperitoneal injection) was then administered throughout the 14 day period. The mice also received a daily injection of bromo-deoxyuridine (BrdU) by intraperitoneal injection). The other two groups of mice), control and bleomycin-treated received a daily intraperitoneal injection of the vehicle containing BrdU. The vehicle comprised 10% dimethyl sulphoxide in peanut oil. […]
Body weight was measured throughout the experiment. […] After a 5 minute stabilization period, values of resistance and compliance were recorded and the animal was killed by a lethal dose of pentabarbitone.
Half of each group of animals was then subjected to bronchoalveolar lavage (BAL) to generate BAL fluid (BALF) in which the number of infiltrating cells was counted by haemocytometry. […]
Tissue areas reported in Table 6 were determined by capturing images of the lung section at a 100 times magnification and importing those images into a powerpoint file. […]
A 36 point overlay was then applied to the captured image and the number of grid points that intersect with tissue was determined for each of the 10 selected fields. […]

SMILES: COc1cc2c(cc1O)C(=NOCc1ccc([N+](=O)[O-])cc1)C[C@@H]1[C@@H]2CC[C@]2(C)[C@@H](O)CC[C@@H]12 [CP-DM-2-11-7, 2-methoxy-6-(4-nitrobenzyloxy)iminoestradiol]
- effect on bFGF-induced HASM proliferation on collagen (FIG. 6) (HASM cells; collagen-coated silastic): retained its effectiveness as an anti-proliferative agent
- effect on bFGF-induced HASM proliferation on plastic (FIG. 5) (HASM cells; plastic tissue culture plate): markedly reduced the increase in HASM cell number to levels below that of dexamethasone
- Proliferation Epithelial ([1]; BrdU positive nuclei as percentage of total nuclei, major airway, n = 6, bleomycin alone 4.646 ± 0.8564): 3.802 ± 0.9053
- Parenchymal Cell Prolif. ([1]; magnification of 600×, bleomycin alone 1340 ± 287): 738 ± 185 positive cells/10^6 pixels
